{"source": "patent US20020025944A1", "about": "“Use of clioquinol for the therapy of Alzheimer's disease” (priority 2000, published 2002)", "key": {"[1]": {"conditions": "chelation of zinc; cited from earlier work"}, "[2]": {"conditions": "cited from earlier work"}, "[3]": {"conditions": "rats and mice, within one hour of ingestion; cited from earlier work"}, "[4]": {"conditions": "with PBS at 1:1 mixture of n-decane; cited from earlier work"}, "[5]": {"test": "dissolving clioquinol: n-decane / PBS partitioning", "format": "physicochemical", "protocol": "In order to obtain a solution of clioquinol in PBS, the following protocol was followed: 5.3 grams of clioquinol was suspended with agitation in 200 milliliter of n-decane. […] Next, the phases were allowed to separate. The lower phase ([…]) was collected and filtered to remove the residue which had formed at the phase interface upon extraction with the organic solvent. […] This number was arrived at based on two assumptions: (1) 2% of the clioquinol was dissolved in the n-decane; and (2) the partitioning coefficient is 1/1750 with PBS at 1:1 mixture of n-decane to […]."}, "[6]": {"conditions": "sustained treatment; cited from earlier work"}, "[7]": {"conditions": "monkeys, oral dose of 500 mg/kg; cited from earlier work"}, "[8]": {"conditions": "dogs, oral dose of 200 mg/kg; cited from earlier work"}, "[9]": {"system": "Aβ deposits from AD-affected brain", "test": "extraction of Aβ from post-mortem AD-affected brain tissue, western blot", "format": "biochemical, human", "text": "To test this hypothesis, the brain tissue preparation of Kuo and colleagues was replicated, but phosphate-buffered saline pH 7.4 (PBS) was substituted as the extraction buffer, achieving similar results. Highly sensitive and specific anti-Aβ monoclonal antibodies (Ida et al., (1996)) were used to assay Aβ extraction by western blot. Next, the extraction of the same material with PBS was repeated in the presence of clioquinol and determined that the presence of clioquinol increased the amount of Aβ in the soluble extract several-fold (FIGS. 1, 2, 3A, and 3B).\nNext, the ability of clioquinol to extract Aβ deposits from human brain was determined. […] Fragments of prefrontal cortex from individual post-mortem samples with the histopathological diagnosis of AD were homogenized in PBS, ph 7.4, and then pelleted after centrifugation.\nThe pellets were then washed with agitation twice for 30 minutes, 4° C., with PBS or PBS containing clioquinol (100% =0.8 μM clioquinol). The suspension was then pelleted (10,000 g for 30 minutes) and the supernatant removed (S1) for western blot analysis using Aβ-specific antibodies.\nFIGS. 3A and 3B show the western blot and accompanying densitometric analysis of resolubilization of Aβ from AD-affected brain. […] Synthetic peptide standards that were used to calibrate densitometric quantification are shown in the two right-most lanes. […]"}, "[10]": {"conditions": "cited from earlier work", "remark": "listed apart in the source"}, "Aβ1-40": {"biological_target": "Aβ1-40 (Homo sapiens, UniProt P05067)", "sequence (P05067 672-711 limits assumed)": "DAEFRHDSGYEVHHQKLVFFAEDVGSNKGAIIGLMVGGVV", "test": "Zn(II)-induced Aβ1-40 aggregation, supernatant protein by BCA assay", "format": "biochemical", "conditions": "20 mM HEPES, pH 7.4, 30 minutes at 37° C.", "protocol": "Aβ1-40 was incubated with no metal, Zn (II), Zn (II) +clioquinol, DMSO or clioquinol (120 μM) in 20 mM HEPES, […], pH 7.4. Samples were incubated for 30 minutes at 37° C. and then centrifuged at 10,000 g for 20 minutes and the protein content of the supernatant determined using the BCA assay. Clioquinol was dissolved in DMSO prior to adding 20 μM to the samples. […] DMSO had no effect on Aβ aggregation. Results are mean ±SD, n=3."}, "[11]": {"conditions": "rats, oral dose of 200 mg/kg; cited from earlier work"}, "[12]": {"conditions": "cited from earlier work; for blood brain barrier passage: in vivo"}, "Aβ 1-40 aggregates": {"biological_target": "Aβ 1-40 aggregates (Homo sapiens, UniProt P05067)", "sequence (P05067 672-711)": "as the sequence (P05067 672-711 limits assumed) above", "test": "resolubilization of metal- or pH-induced Aβ aggregates on 0.2μ nylon membrane", "format": "biochemical", "conditions": "2 μM chelator in TBS, relative to TBS alone", "protocol": "Aggregates were transferred to a 0.2μ nylon membrane by filtration. The aggregates were then washed (200 μl/well) with TBS alone, TBS containing 2 μM EDTA, or TBS containing 2 μM clioquinol. The membrane was fixed, probed with the anti-Aβ monoclonal antibody 6E10, and developed for exposure to ECL-film. […] Values are expressed as a percentage of Aβ signal after washing with TBS alone.\nFirst, the efficacy of clioquinol's ability to resolubilize Aβ aggregates, formed in vitro by the action of Cu(II) or Zn(II) upon Aβ 1-40, was examined. […] Aβ (10 ng/well in buffered saline) aggregation was induced by addition of ZnCl2 (5 μM) or acidic conditions (pH 5.5). Aggregates were transferred to a 0.2μ nylon membrane by filtration. The aggregates were then washed (200 μl/well) with TBS alone, TBS containing 2 μM EDTA or TBS with 2 μM clioquinol. The membrane was then fixed, probed with anti-Aβ monoclonal antibody 6E10 and developed for exposure to ECL-film.\nValues are expressed as a % of Aβ signal remaining on the filter after washing with TBS alone."}}, "note": "Like-named read-outs stand apart in the source and are kept apart here.", "data": [{"smiles": "Oc1c(I)cc(Cl)c2cccnc12", "note": "[clioquinol, 5-chloro-7-iodo-8-hydroxyquinoline]", "values": [{"measurement": "K(Zn)", "setting": "[1]", "value": 12.5}, {"measurement": "excretion half life", "setting": "[2]; in vivo", "value": "1 to 3", "unit": "h"}, {"measurement": "time to reach peak plasma levels", "setting": "[2]; oral ingestion", "value": "≤ 30", "unit": "min"}, {"measurement": "blood levels", "setting": "[3]", "value": "1 to 10", "unit": "µM"}, {"measurement": "partitioning coefficient", "setting": "[4]", "value": "1/1750"}, {"measurement": "fraction of clioquinol dissolved in n-decane", "setting": "[5]; 5.3 grams suspended in 200 milliliter n-decane", "value": 2, "unit": "%"}, {"measurement": "concentration of clioquinol in the PBS", "setting": "[5]; PBS pH 7.4 after 1:1 extraction of n-decane supernatant", "value": 800, "unit": "nanamolar"}, {"measurement": "dose causing subacute myelo-optic neuritis", "setting": "[6]", "value": 10, "unit": "mg/kg/day"}, {"measurement": "plasma levels", "setting": "[7]", "value": "20 to 70", "unit": "µM"}, {"measurement": "plasma levels", "setting": "[8]", "value": "10 to 30", "unit": "µM"}, {"measurement": "increase in solubilization of Aβ relative to PBS alone", "setting": "[9]; 1.12 μM clioquinol, sequential extraction", "value": 2.5, "unit": "fold"}, {"measurement": "proportion of Aβ re-dissolved from post-mortem AD affected brain tissue", "setting": "[9]; compared to buffer in the absence of chelators", "value": "up to 70%"}, {"measurement": "general toxicity profile", "setting": "[10]; in vivo", "value": "low general toxicity profile"}, {"measurement": "safety in mammalian species", "setting": "[10]; many mammalian species, including rat and mouse", "value": "appears to be safe"}, {"measurement": "effect on Zn-induced Aβ1-40 aggregation", "setting": "Aβ1-40", "value": "attenuated Zn-induced Aβ1-40 aggregation"}, {"measurement": "plasma levels", "setting": "[11]", "value": 5, "unit": "µM"}, {"measurement": "removal of a bolus dose from the brain", "setting": "[12]; bolus dose", "value": "almost completely removed from the brain within three hours"}, {"measurement": "blood brain barrier passage", "setting": "[12]", "value": "freely permeable into the brain"}, {"measurement": "blood brain barrier passage", "setting": "[12]; listed as Clioquinol", "value": "crosses the blood brain barrier"}, {"measurement": "resolubilized Cu(II)-induced Aβ precipitate", "setting": "Aβ 1-40 aggregates", "value": 85, "unit": "%"}, {"measurement": "resolubilized Zn(II)-induced Aβ precipitate", "setting": "Aβ 1-40 aggregates", "value": 50, "unit": "%"}, {"measurement": "resolubilized pH 5.5-induced Aβ precipitate", "setting": "Aβ 1-40 aggregates", "value": 10, "unit": "%"}]}]}
